In patent US20090036525A1, “Non-Natural Amino Acid Derivatives” (POXIMAGEN LTD., priority 2006, published 2009):
Where a SMILES comes first, the peptide text is derived from it. [ ]: non-standard residue; d: D form. Dopa = N[C@@H](Cc1ccc(O)c(O)c1)C(=O)O; Cha = N[C@@H](CC1CCCCC1)C(=O)O

System: 6-OHDA-lesioned rats
Test: Induction of rotational activity in 6-OHDA-lesioned rats
Type: in vivo, rat
Conditions: 63.4 μmole/kg, after benserazide 10 mg/kg, rotations over 4 hours

Structure (SMILES)	AUC activity (as % of AUC activity L-DOPA) (i.p.)	Peak activity (as % of maximal activity L-DOPA) (i.p.)	duration of activity (as % of duration of activity L-DOPA) (i.p.)	AUC activity (as % of AUC activity L-DOPA) (p.o.)	Peak activity (as % of maximal activity L-DOPA) (p.o.)	duration of activity (as % of duration of activity L-DOPA) (p.o.)
COC(=O)[C@H](Cc1ccc(OC(C)=O)c(OC(C)=O)c1)NC(=O)[C@@H](N)CC1CCCCC1.Cl [Example 2, (S)-2-Cyclohexyl-1-[(S)-2-(3,4-diacetoxyphenyl)-1-methoxycarbonyl-ethylcarbamoyl]-ethylammonium chloride]	32 % of L-DOPA	31 % of L-DOPA	27 % of L-DOPA			
COC(=O)[C@H](Cc1ccc(O)c(O)c1)NC(=O)[C@@H](N)[C@@H](C)c1ccccc1.Cl [Example 12, (1S,2S)-1-[(S)-2-(3,4-Dihydroxyphenyl)-1-methoxycarbonylethylcarbamoyl]-2-phenylpropylammonium chloride]				50 % of L-DOPA	62 % of L-DOPA	46 % of L-DOPA
COC(=O)[C@H](Cc1ccc(O)c(O)c1)NC(=O)[C@@H](N)[C@H](C)c1ccccc1.Cl [Example 13, (1S,2R)-1-[(S)-2-(3,4-Dihydroxyphenyl)-1-methoxycarbonyl-ethylcarbamoyl]-2-phenylpropylammonium; chloride]				106 % of L-DOPA	141 % of L-DOPA	76 % of L-DOPA
COC(=O)[C@H](Cc1ccc(O)c(O)c1)NC(=O)[C@@H](N)CC1CCCCC1.Cl [Example 1, (S)-2-Cyclohexyl-1-[(S)-2-(3,4-dihydroxyphenyl)-1-methoxycarbonylethyl-carbamoyl]-ethylammonium chloride] (H-[Cha]-[Dopa]-OMe)				40 % of L-DOPA	53 % of L-DOPA	45 % of L-DOPA
